# Test results as given in patent publication US20220265775A1, “COMPOSITIONS AND METHODS FOR TREATING PULMONARY EDEMA OR LUNG INFLAMMATION” (priority 2019, published 2022).
# Legend:
# RLE-6TN cells = assay: RLE-6TN cell survival under hyperoxia and recovery, viable cells counted by trypan blue exclusion; assay type: cell-based, rat
# Protocol: FIG. 7. […] The cells were cultured in DMEM/F12 with 10% FBS in 21% O2 and 5% CO2 overnight. […] The viable cells are counted immediately after 72-hour hyperoxia exposure. Cell viability is assessed with trypan blue. The amount of viable cells under specific conditions is presented as a percentage of the cell number from hyperoxia alone. Data are mean±s.d. of four independent experiments with *=P<0.05; **=P<0.01.
# FIG. 8. […] In both (A) and (B), the number of viable cells under specific conditions is presented as a percentage of the cell number related to hyperoxia alone in the same experiment. Data are mean s.d. of four independent experiments with *=P<0.05; **=P<0.01.
# (§1) FIG. 10. HO-1 upregulation is required for T3-increased RLE-6TN cell survival in hyperoxia. […] The cells were then collected for Western Blot analysis. (B) The cells were incubated in 21% O2 and 5% CO2 for 72 hours in the present of HO-1 inhibitor Tin Protoporphyrin IX (10^−6M). […] Cell viability is assessed with trypan blue. The number of viable cells under specific conditions is presented as a percentage of the cell number related to hyperoxia alone. Data are mean±s.d. of three independent experiments with *=P<0.05; **=P<0.01.
# FIG. 11. PI3K inhibitor wortmannin blocked T3-induced cell survival in hyperoxia. […] Cell viability is assessed with trypan blue. The number of viable cells under specific conditions is presented as a percentage of the cell number related to hyperoxia alone. Data are mean±s.d. of four independent experiments with *=P<0.05; **=P<0.01.
# At the end of the hyperoxia exposure period, the viable cells were counted by trypan blue dye exclusion.
# Nrf2 = assay: Western blot of total cellular and nuclear Nrf2 protein in RLE-6TN cells under hyperoxia; assay type: cell-based, rat; details: 24 hours of hyperoxia, 10^−6 M T3
# Protocol: FIG. 9. […] The cells were then collected for Western Blot analysis. (A) Cellular total Nrf2 protein; (B) Nuclear Nrf2.
# Nuclei were extracted with NE-PER nuclear and cytoplasmic extraction reagents kit (Thermo Fisher Scientific, Inc., Waltham, Mass.) following the manufacturer's instruction.
# (§2) The cells were lysed in lysis buffer containing 20 mM Tris HCl (pH 7.5), 150 mM NaCl, 1 mM EDTA, 1 mM EGTA, 1% (vol/vol) Triton X-100 with protease inhibitors (1 mM PMSF, 2 μg/ml pepstatin, and 10 μg/ml each of aprotinin and leupeptin), and phosphatase inhibitors (2.5 mM sodium pyrophosphate, 1 mM β-glycerophosphate, and 1 mM Na3VO4). The lysate was drawn 10 times through a 25-gauge needle on ice for further lysis and then was centrifuged at 13,000 rpm for 15 minutes at 4° C. The supernatant was collected, and the protein concentrations were determined by use of the BCA protein assay kit (Sigma-Aldrich, St. Louis, Mo.). Immediately after this step, equal amounts of protein were subjected to Western blotting analysis.
# HO-1 = assay: Western blot of total cellular HO-1 protein in RLE-6TN cells under hyperoxia; assay type: cell-based, rat; details: T3 10^−6 M
# Protocol: as §1, §2
# [1] = test system: hyperoxia-induced lung injury; assay: Wet-dry lung weight ratio in hyperoxia-exposed rats; assay type: in vivo, Sprague Dawley rats; details: 60 hours of hyperoxia (O2 with T3), intraperitoneal T3 12.5 μg/kg body weight each 12 hours, O2 alone 6.61±0.604, p=0.0495
# Description: (§3) All experimental protocols for animal treatments were approved by the University of Minnesota Institutional Animal Care and Use Committee. […] The room-air control rats were kept in the University animal housing facility. At the end of hyperoxic exposure, rats were sacrificed by intraperitoneal pentobarbital injection, and the lungs were harvested; the right lobes were allocated for histopathology, measurement of lung tissue myeloperoxidase (MPO) activity and wet-to-dry weight ratio. The left lobes underwent bronchoalveolar lavage (BAL) to determine BAL protein concentrations and differential cell counts.
# A portion of the right lung was rinsed briefly in PBS, blotted, and then weighed to obtain the “wet” weight. Lungs then were dried in an oven at 80° C. for seven days to obtain the “dry” weight.
# [2] = test system: myeloperoxidase (MPO) activity in lung tissue; assay: Myeloperoxidase (MPO) activity assay and MPO immunostaining of lung tissue of hyperoxia-exposed rats; assay type: in vivo, Sprague Dawley rats
# Description: as §3
# To quantify the neutrophil activity in the lung, MPO activity was assayed as previously described (Abraham et al., J Immunol 165:2950-2954, 2000). Lung tissues without prior lavage were frozen in liquid nitrogen, weighed, and stored at −86° C. The lungs were homogenized for 30 seconds in 1.5 ml 20 mM potassium phosphate, pH 7.4, and centrifuged at 4° C. for 30 minutes at 40,000×g. The pellet was resuspended in 1.5 ml 50 mM potassium phosphate, pH 6.0, containing 0.5% hexadecyltrimethylammonium bromide, sonicated for 90 seconds, incubated at 60° C. for two hours, and centrifuged at 14,000 rpm for 30 minutes at 4° C. The supernatant was assayed for peroxidase activity corrected to lung weight. MPO was expressed as activity per gram of lung tissue. […]
# [3] = test system: hyperoxia-induced lung injury; assay: Histopathological evaluation of lung sections of hyperoxia-exposed rats; assay type: in vivo, Sprague Dawley rats; details: 60 hours of hyperoxia, systemic T3 supplementation
# Description: FIG. 18. […] (A) Control: room air; (B) Hyperoxia; (C) Hyperoxia+T3.
# as §3
# Lung tissue was removed and inflation fixed at 20 cm water pressure in 4% paraformaldehyde, paraffin embedded, cut as 5 micron sections and mounted onto poly-L-lysine slides. Sections were deparaffinized in xylene, rehydrated through a graded alcohol series in methanol, and placed in a 98° C. water bath for 30 minutes in citrate buffer (pH 6.0) for antigen retrieval. After quenching with 0.3% hydrogen peroxide in PBS, sections were incubated in normal serum for 30 minutes and for 15 minutes each with Avidin/Biotin Blocking Kit (Vector Laboratories, Inc., Burlingame, Calif.). […]
# [4] = Serum total T3 measurement (RIA) in hyperoxia-exposed rats; assay type: in vivo, Sprague Dawley rats; details: rats exposed to 95% oxygen for 60 hours, intraperitoneal T3 supplementation 50 μg/kg bodyweight/24 hours, vs hyperoxia alone
# Protocol: FIG. 13. […] Rats were exposed to ˜ 95% of oxygen for 60 hours. […] RA: room air control.
# as §3
# Blood samples were collected at the end of 60 hours of hyperoxia and were centrifuged at 13,000 rpm for 30 minutes at 4° C. Supernatant was stored at −20° C.
# [5] = Preliminary tolerability of intratracheal instillation of liothyronine sodium in rats; assay type: in vivo; details: preliminary studies, pH of >10.0 as supplied commercially
# Protocol: Therefore, the liothyronine sodium and the vehicle were adjusted to neutral pH (6.0-8.0) with sterile 1.0 N HCl (Sigma-Aldrich, St. Louis, Mo.) added aseptically in a biosafety cabinet prior to intratracheal instillation into animals. Using aseptic technique, vials of liothyronine sodium were opened and the entire contents were transferred into sterile 1.5 mL Eppendorf tubes. 80-90 μL of 1.0 N HCl was added to the tube and gently vortexed, and the pH was measured using pH test strips (pH 4.5 to 10.0, Ricca Chemical Co., Arlington, Tex.). Additional HCl was titrated in gradually, as needed, until the pH was in the desired range. […] This solution was stored at 4° C. and used for up to 26 hours after pH adjustment procedure. […] The vehicle was also adjusted to neutral pH (6.0-8.0) with 1.0 N HCl as described above. Using aseptic technique the vehicle was filter sterilized and aliquoted into 21 sterile disposable tubes (5 mL each) and stored at 4° C., and a new tube was opened for each day of use. Normal Saline (0.9% Sodium Chloride Injection USP, B. Braun Medical, Inc., Bethlehem, Pa.), was stored at room temperature. A new package was opened for each day of use.
structure (smiles),measurement,setting,value
"N[C@@H](Cc1cc(I)c(Oc2ccc(O)c(I)c2)c(I)c1)C(=O)O [T3, triiodothyronine]",number of viable AT2 cells at 48 hours of recovery,"RLE-6TN cells; 90% oxygen for 24 or 48 hours, compound present only during recovery in 21% O2",significantly increased the number of viable AT2 cells
same,increase in number of surviving cells compared with hyperoxia control,"RLE-6TN cells; 90% oxygen for 72 hours, 10^−6M",~2.5 fold
same,protective effect on viable AT2 cell number after recovery in room air,"RLE-6TN cells; hyperoxia 72 hours with T3, then room air 72 hours with no supplemental T3",persisted and was of similar magnitude
same,nuclear Nrf-2 protein expression,Nrf2,significantly increased both total cellular and nuclear Nrf-2 protein expression
same,total cellular Nrf-2 protein expression,Nrf2,significantly increased both total cellular and nuclear Nrf-2 protein expression
same,total cellular protein of HO-1,HO-1,significantly enhanced total cellular protein of HO-1
same,wet-to-dry lung weight ratio,[1],5.82±0.197
same,MPO-positive cells in the lungs (immunostaining),[2]; T3-injected rats exposed to 95% oxygen for 60 hours vs hyperoxic lungs without T3,fewer MPO-positive cells
same,lung MPO activity,"[2]; rats, 60 hours of hyperoxia, T3 supplementation vs hyperoxia alone",significantly reduced the hyperoxia-induced MPO activity
same,lung morphology (histopathology),[3],persistence of virtually normal lung morphology
same,serum total T3 level,[4],augmented serum total T3
same,tolerability of intratracheal instillation,[5],do not tolerate
